The source of these data is the supplement of paper PMC4862054.

What all share (assay): normalised response (% of control), CellTox Green; higher = less cell death (100 = DMSO, 0 = benzethonium chloride kill control)
Common to all, as to details: incubation time: 72 h

The subject of one experiment is Hs578T. Summed up:
(§1)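 Every value is a normalised signal taken at one concentration of a dilution series. Compound was placed in 384-well plates at 5 concentrations in 10-fold steps over a compound-specific 10,000-fold range, and 20 µl of breast cancer cell suspension was seeded onto it. After 72 h, CellTox Green fluorescence (485/520 nm) was measured first and CellTiter-Glo luminescence second, following 10 min at room temperature. Each plate was scaled to 0.1 % DMSO (100) and a positive kill control (0).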

In another experiment the test system is MCF-10A. Summed up: as §1
The next experiment deals with CAL-85-1. Summed up: as §1
Another experiment concerns BT-549. Summed up: as §1
The subject of the next experiment is BT-474. A digest of the protocol: as §1
For a further experiment, the system named is CAL-51. A digest of the protocol: as §1
In a further experiment the test system is MDA-MB-468. A digest of the protocol: as §1
The test system of the next experiment is MFM-223. Summed up: as §1
A further experiment deals with MDA-MB-453. A digest of the protocol: as §1
The next experiment deals with DU-4475. Summed up:
as §1

For a further experiment, the system named is CAL-148. Summed up:
as §1

The test system of a further experiment is HCC1599. Summed up:
as §1

A further experiment has as its system MDA-MB-436. A digest of the protocol:
as §1

Another experiment relates to HCC1143. Summed up: as §1
The next experiment deals with HCC1937. Summed up: as §1

As for `Nc1nc(Cl)nc2c1ncn2[C@@H]1O[C@H](CO)[C@@H](O)[C@@H]1F` [Clofarabine] (10000 nM), the normalised response amounted to 142% in the experiment with Hs578T; 110% in the experiment on MCF-10A; 60.5% in the experiment on CAL-85-1; 87.3% with BT-549; 105% with BT-474; 40.6% in the experiment on CAL-51. Further, the normalised response came out at 73.1% in the experiment with MDA-MB-468; 102% in the experiment with MFM-223; 95.2% in the experiment with MDA-MB-453; 89.1% in the experiment on DU-4475; 65.1% in the experiment on CAL-148; 93.9% in the experiment with HCC1599. The values for the normalised response in the experiment on MDA-MB-436, with HCC1143 and in the experiment on HCC1937 were 65.6%, 106% and 75.6%, respectively.
For `CCN(CC)CCOc1ccc(C(=C(Cl)c2ccccc2)c2ccccc2)cc1` [Clomifene] (10000 nM), the normalised response in the experiment with Hs578T is -60.1%; in the experiment on MCF-10A, 60.3%; with CAL-85-1 it was 25.3%; in the experiment on BT-549, 82.5%; in the experiment on BT-474, 5.17%; in the experiment with CAL-51 it was 109%. Further, the normalised response with MDA-MB-468 came out at 93.8%; in the experiment with MFM-223, 40.9%; with MDA-MB-453 it was 18.9%; with DU-4475, 53.4%; in the experiment on CAL-148 it was 79.6%; in the experiment on HCC1599, 48.6%. For the same compound, the normalised response in the experiment on MDA-MB-436 was 89.1%; in the experiment on HCC1143 it was 112%; with HCC1937, -34.5%.
For `C[C@@H]1C[C@H]2[C@@H]3CCC4=CC(=O)C=C[C@]4(C)[C@@]3(F)[C@@H](O)C[C@]2(C)[C@@]1(O)C(=O)CO` [Dexamethasone] (10000 nM), the normalised response in the experiment with Hs578T came out at 87.4%; with MCF-10A, 81.8%; in the experiment on CAL-85-1 it was 130%; in the experiment with BT-549, 100%; in the experiment on BT-474, 94%; with CAL-51 it was 103%. Besides, the normalised response in the experiment with MDA-MB-468 worked out at 135%; in the experiment with MFM-223 it was 101%; in the experiment on MDA-MB-453, 100%; with DU-4475 it was 97.4%; in the experiment with CAL-148 it was 100%; in the experiment with HCC1599 it was 94.4%. In addition, the normalised response with MDA-MB-436 amounted to 97.4%; with HCC1143 it was 51.4%; in the experiment on HCC1937, 61.1%.
For the compound `CC(C)C(=O)Nc1ccc([N+](=O)[O-])c(C(F)(F)F)c1` [Flutamide] (1000 nM), the normalised response in the experiment with Hs578T worked out at 108%; with MCF-10A, 97.9%; in the experiment on CAL-85-1, 101%; with BT-549, 115%; with BT-474, 99.5%; in the experiment with CAL-51, 98.4%. Besides, the normalised response with MDA-MB-468 was 144%; in the experiment on MFM-223 it was 99%; with MDA-MB-453, 102%; in the experiment on DU-4475, 99.8%; with CAL-148 it was 104%; with HCC1599, 94.6%. For the same compound, the normalised response in the experiment on MDA-MB-436 stood at 99.7%; in the experiment on HCC1143 it was 99.2%; in the experiment with HCC1937 it was 118%.
In the case of `COc1cc2c(Oc3ccc(NC(=O)C4(C(=O)Nc5ccc(F)cc5)CC4)cc3F)ccnc2cc1OCCCN1CCOCC1` [Foretinib] (100 nM), the normalised response was 83.7% with Hs578T; 111% with MCF-10A; 100% in the experiment on CAL-85-1; 113% with BT-549; 100% in the experiment on BT-474; 94.2% in the experiment with CAL-51. Moreover, the normalised response was 97.5% in the experiment on MDA-MB-468; 101% in the experiment on MFM-223; 107% in the experiment on MDA-MB-453; 101% in the experiment on DU-4475; 102% with CAL-148; 99.2% in the experiment on HCC1599. Also, the normalised response worked out at 102% in the experiment with MDA-MB-436, 106% in the experiment on HCC1143 and 111% in the experiment on HCC1937.
In the case of `COc1cc2c(Oc3ccc(NC(=O)C4(C(=O)Nc5ccc(F)cc5)CC4)cc3F)ccnc2cc1OCCCN1CCOCC1` [Foretinib] (1000 nM), the normalised response was determined as 75.7% in the experiment with Hs578T; 101% in the experiment with MCF-10A; 76.8% with CAL-85-1; 88.3% with BT-549; 97.1% with BT-474; 37.9% in the experiment with CAL-51. Further, the normalised response came out at 37.6% in the experiment on MDA-MB-468; 84.4% in the experiment on MFM-223; 93.5% with MDA-MB-453; 95.2% in the experiment with DU-4475; 33.1% in the experiment on CAL-148; 92% in the experiment on HCC1599. Further, the normalised response in the experiment with MDA-MB-436 stood at 81.9%; in the experiment with HCC1143, 46%; in the experiment with HCC1937 it was 99.8%.
As to `O=NN(CCCl)C(=O)NC1CCCCC1` [Lomustine] (1000 nM), the normalised response worked out at 98.3% in the experiment with Hs578T; 96.9% in the experiment on MCF-10A; 98.6% with CAL-85-1; 104% in the experiment with BT-549; 98.1% with BT-474; 112% in the experiment on CAL-51. Also, the normalised response in the experiment on MDA-MB-468 was determined as 128%; in the experiment on MFM-223, 97%; in the experiment with MDA-MB-453, 103%; in the experiment with DU-4475, 99.4%; in the experiment with CAL-148, 106%; in the experiment on HCC1599 it was 93.7%. Moreover, the normalised response in the experiment on MDA-MB-436 came out at 84.8%; in the experiment with HCC1143 it was 108%; in the experiment with HCC1937, 120%.
On to `O=NN(CCCl)C(=O)NC1CCCCC1` [Lomustine] (10000 nM), for which the normalised response was determined as 113% in the experiment on Hs578T; 88.2% with MCF-10A; 108% in the experiment with CAL-85-1; 93.2% in the experiment with BT-549; 95.2% in the experiment on BT-474; 108% with CAL-51. The normalised response is 77.9% in the experiment on MDA-MB-468; 103% in the experiment on MFM-223; 100% with MDA-MB-453; 98.9% in the experiment with DU-4475; 94.2% in the experiment with CAL-148; 103% in the experiment with HCC1599. Further, the normalised response in the experiment on MDA-MB-436 amounted to 86.5%; with HCC1143, 108%; with HCC1937, 57.4%.
As to `O=C(O)CC[C@H]1CC[C@@](c2cc(F)ccc2F)(S(=O)(=O)c2ccc(Cl)cc2)CC1` [MK-0752] (100 nM), the normalised response came out at 97.3% with Hs578T; 114% in the experiment on MCF-10A; 97% with CAL-85-1; 131% in the experiment with BT-549; 102% with BT-474; 116% in the experiment on CAL-51. Further, the normalised response was 165% in the experiment with MDA-MB-468; 94% in the experiment with MFM-223; 111% with MDA-MB-453; 107% in the experiment with DU-4475; 59% with CAL-148; 111% in the experiment with HCC1599. Further, the normalised response worked out at 110% in the experiment on MDA-MB-436, 105% in the experiment with HCC1143 and 96% in the experiment on HCC1937.
